# Data taken from PubChem BioAssay (NCI).
#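 The concentration for 50% growth inhibition is given as GI50. At the TGI there is no net growth.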
# How the values were obtained:
# Experiment in all cases: inhibition of tumour cell growth, NCI panel, 384-well format
# SK-MEL-28 melanoma = test system: SK-MEL-28 melanoma
# SF-295 CNS = test system: SF-295 CNS
# OVCAR-5 ovarian = test system: OVCAR-5 ovarian
# UACC-257 melanoma = test system: UACC-257 melanoma
# NCI-H226 lung = test system: NCI-H226 lung
# MDA-MB-231 breast = test system: MDA-MB-231 breast
# UO-31 renal = test system: UO-31 renal
# NCI/ADR-RES ovarian = test system: NCI/ADR-RES ovarian
# IGROV1 ovarian = test system: IGROV1 ovarian
# K-562 leukemia = test system: K-562 leukemia
# SF-268 CNS = test system: SF-268 CNS
# HL-60(TB) leukemia = test system: HL-60(TB) leukemia
# HOP-92 NSCLC = test system: HOP-92 NSCLC
# MCF7 breast = test system: MCF7 breast
# SK-MEL-2 melanoma = test system: SK-MEL-2 melanoma
# CAKI-1 renal = test system: CAKI-1 renal
# HOP-62 NSCLC = test system: HOP-62 NSCLC
# CCRF-CEM leukemia = test system: CCRF-CEM leukemia
# HT29 colon = test system: HT29 colon
# OVCAR-3 ovarian = test system: OVCAR-3 ovarian
# HCT-116 colon = test system: HCT-116 colon
# SN12C renal = test system: SN12C renal
# SK-MEL-5 melanoma = test system: SK-MEL-5 melanoma
# MDA-MB-435 melanoma = test system: MDA-MB-435 melanoma
# SR leukemia = test system: SR leukemia
# MDA-MB-468 breast = test system: MDA-MB-468 breast
# PC-3 prostate = test system: PC-3 prostate
# DU-145 prostate = test system: DU-145 prostate
# OVCAR-8 ovarian = test system: OVCAR-8 ovarian
# BT-549 breast = test system: BT-549 breast
# MOLT-4 leukemia = test system: MOLT-4 leukemia
# SW-620 colon = test system: SW-620 colon
# SNB-19 CNS = test system: SNB-19 CNS
# UACC-62 melanoma = test system: UACC-62 melanoma
# NCI-H322M lung = test system: NCI-H322M lung
# KM12 colon = test system: KM12 colon
# LOX IMVI melanoma = test system: LOX IMVI melanoma
# TK-10 renal = test system: TK-10 renal
# A549 NSCLC = test system: A549 NSCLC
# U251 glioblastoma = test system: U251 glioblastoma
# HCC-2998 colon = test system: HCC-2998 colon
# ACHN renal = test system: ACHN renal
# SK-OV-3 ovarian = test system: SK-OV-3 ovarian
# RXF 393 renal = test system: RXF 393 renal
# NCI-H460 NSCLC = test system: NCI-H460 NSCLC
# T-47D breast = test system: T-47D breast
# OVCAR-4 ovarian = test system: OVCAR-4 ovarian
# 786-0 renal = test system: 786-0 renal
# MALME-3M melanoma = test system: MALME-3M melanoma
# SF-539 CNS = test system: SF-539 CNS
# NCI-H23 lung = test system: NCI-H23 lung
# M14 melanoma = test system: M14 melanoma
# RPMI-8226 leukemia = test system: RPMI-8226 leukemia
# COLO 205 colon = test system: COLO 205 colon
# A498 renal = test system: A498 renal
# NCI-H522 lung = test system: NCI-H522 lung
# HCT-15 colon = test system: HCT-15 colon
compound,measurement,setting,value
C=Cc1c(C)c2cc3nc(cc4[nH]c(cc5nc(cc1[nH]2)C(C)=C5CCC(=O)O)c(CCC(=O)OC)c4C)[C@@]1(C)C3=CC=C(C(=O)OC)[C@H]1C(=O)OC,GI50,SK-MEL-28 melanoma,1980 nM
same,TGI,SK-MEL-28 melanoma,4250 nM
same,GI50,SF-295 CNS,1280 nM
same,TGI,SF-295 CNS,2940 nM
same,GI50,OVCAR-5 ovarian,2490 nM
same,TGI,OVCAR-5 ovarian,5930 nM
same,GI50,UACC-257 melanoma,1640 nM
same,TGI,UACC-257 melanoma,3870 nM
same,GI50,NCI-H226 lung,1480 nM
same,TGI,NCI-H226 lung,3360 nM
same,GI50,MDA-MB-231 breast,1510 nM
same,TGI,MDA-MB-231 breast,4380 nM
same,GI50,UO-31 renal,2330 nM
same,TGI,UO-31 renal,6210 nM
same,GI50,NCI/ADR-RES ovarian,1910 nM
same,TGI,NCI/ADR-RES ovarian,4630 nM
same,GI50,IGROV1 ovarian,1930 nM
same,TGI,IGROV1 ovarian,4730 nM
same,GI50,K-562 leukemia,1030 nM
same,TGI,K-562 leukemia,9640 nM
same,GI50,SF-268 CNS,1940 nM
same,TGI,SF-268 CNS,5630 nM
same,GI50,HL-60(TB) leukemia,1870 nM
same,TGI,HL-60(TB) leukemia,3290 nM
same,GI50,HOP-92 NSCLC,1920 nM
same,TGI,HOP-92 NSCLC,4320 nM
same,GI50,MCF7 breast,1940 nM
same,TGI,MCF7 breast,5760 nM
same,GI50,SK-MEL-2 melanoma,1640 nM
same,TGI,SK-MEL-2 melanoma,3330 nM
same,GI50,CAKI-1 renal,2850 nM
same,TGI,CAKI-1 renal,7690 nM
same,GI50,HOP-62 NSCLC,1700 nM
same,TGI,HOP-62 NSCLC,4160 nM
same,GI50,CCRF-CEM leukemia,1190 nM
same,TGI,CCRF-CEM leukemia,2710 nM
same,GI50,HT29 colon,1980 nM
same,TGI,HT29 colon,4720 nM
same,GI50,OVCAR-3 ovarian,1740 nM
same,TGI,OVCAR-3 ovarian,3410 nM
same,GI50,HCT-116 colon,1280 nM
same,TGI,HCT-116 colon,2770 nM
same,GI50,SN12C renal,2880 nM
same,TGI,SN12C renal,9350 nM
same,GI50,SK-MEL-5 melanoma,1300 nM
same,TGI,SK-MEL-5 melanoma,2680 nM
same,GI50,MDA-MB-435 melanoma,2360 nM
same,TGI,MDA-MB-435 melanoma,5480 nM
same,GI50,SR leukemia,579 nM
same,TGI,SR leukemia,1850 nM
same,GI50,MDA-MB-468 breast,750 nM
same,TGI,MDA-MB-468 breast,2670 nM
same,GI50,PC-3 prostate,1930 nM
same,TGI,PC-3 prostate,4240 nM
same,GI50,DU-145 prostate,2220 nM
same,TGI,DU-145 prostate,5490 nM
same,GI50,OVCAR-8 ovarian,2090 nM
same,TGI,OVCAR-8 ovarian,6680 nM
same,GI50,BT-549 breast,1320 nM
same,TGI,BT-549 breast,3300 nM
same,GI50,MOLT-4 leukemia,1230 nM
same,TGI,MOLT-4 leukemia,2490 nM
same,GI50,SW-620 colon,3220 nM
same,TGI,SW-620 colon,9290 nM
same,GI50,SNB-19 CNS,2760 nM
same,TGI,SNB-19 CNS,9040 nM
same,GI50,UACC-62 melanoma,1880 nM
same,TGI,UACC-62 melanoma,3630 nM
same,GI50,NCI-H322M lung,1880 nM
same,TGI,NCI-H322M lung,4540 nM
same,GI50,KM12 colon,1760 nM
same,TGI,KM12 colon,3660 nM
same,GI50,LOX IMVI melanoma,2640 nM
same,TGI,LOX IMVI melanoma,4810 nM
same,GI50,TK-10 renal,2400 nM
same,TGI,TK-10 renal,6190 nM
same,GI50,A549 NSCLC,1650 nM
same,TGI,A549 NSCLC,4090 nM
same,GI50,U251 glioblastoma,1610 nM
same,TGI,U251 glioblastoma,3970 nM
same,GI50,HCC-2998 colon,1540 nM
same,TGI,HCC-2998 colon,3110 nM
same,GI50,ACHN renal,2460 nM
same,TGI,ACHN renal,6830 nM
same,GI50,SK-OV-3 ovarian,1920 nM
same,TGI,SK-OV-3 ovarian,4730 nM
same,GI50,RXF 393 renal,668 nM
same,TGI,RXF 393 renal,2560 nM
same,GI50,NCI-H460 NSCLC,1690 nM
same,TGI,NCI-H460 NSCLC,3260 nM
same,GI50,T-47D breast,999 nM
same,TGI,T-47D breast,6820 nM
same,GI50,OVCAR-4 ovarian,1250 nM
same,TGI,OVCAR-4 ovarian,3610 nM
same,GI50,786-0 renal,2260 nM
same,TGI,786-0 renal,6550 nM
same,GI50,MALME-3M melanoma,1660 nM
same,TGI,MALME-3M melanoma,3920 nM
same,GI50,SF-539 CNS,1650 nM
same,TGI,SF-539 CNS,3220 nM
same,GI50,NCI-H23 lung,333 nM
same,TGI,NCI-H23 lung,1280 nM
same,GI50,M14 melanoma,2280 nM
same,TGI,M14 melanoma,5230 nM
same,GI50,RPMI-8226 leukemia,1500 nM
same,TGI,RPMI-8226 leukemia,2840 nM
same,GI50,COLO 205 colon,2450 nM
same,TGI,COLO 205 colon,5950 nM
same,GI50,A498 renal,1780 nM
same,TGI,A498 renal,4060 nM
same,GI50,NCI-H522 lung,1330 nM
same,TGI,NCI-H522 lung,3660 nM
same,GI50,HCT-15 colon,1730 nM
same,TGI,HCT-15 colon,3320 nM
